{"source": "paper PMC4368888", "about": "“Preclinical to Clinical Translation of CNS Transporter Occupancy of TD-9855, a Novel Norepinephrine and Serotonin Reuptake Inhibitor” (International Journal of Neuropsychopharmacology, 2015)", "origin": "cited, not measured here", "key": {"[1]": {"tested_on": "SERT and NET", "settings": "in vitro; ref Wu et al., 2008; Tsuruda et al., 2010; cited from earlier work"}, "[2]": {"biological_target": "SERT (Homo sapiens, UniProt P31645)", "sequence (P31645 whole entry)": "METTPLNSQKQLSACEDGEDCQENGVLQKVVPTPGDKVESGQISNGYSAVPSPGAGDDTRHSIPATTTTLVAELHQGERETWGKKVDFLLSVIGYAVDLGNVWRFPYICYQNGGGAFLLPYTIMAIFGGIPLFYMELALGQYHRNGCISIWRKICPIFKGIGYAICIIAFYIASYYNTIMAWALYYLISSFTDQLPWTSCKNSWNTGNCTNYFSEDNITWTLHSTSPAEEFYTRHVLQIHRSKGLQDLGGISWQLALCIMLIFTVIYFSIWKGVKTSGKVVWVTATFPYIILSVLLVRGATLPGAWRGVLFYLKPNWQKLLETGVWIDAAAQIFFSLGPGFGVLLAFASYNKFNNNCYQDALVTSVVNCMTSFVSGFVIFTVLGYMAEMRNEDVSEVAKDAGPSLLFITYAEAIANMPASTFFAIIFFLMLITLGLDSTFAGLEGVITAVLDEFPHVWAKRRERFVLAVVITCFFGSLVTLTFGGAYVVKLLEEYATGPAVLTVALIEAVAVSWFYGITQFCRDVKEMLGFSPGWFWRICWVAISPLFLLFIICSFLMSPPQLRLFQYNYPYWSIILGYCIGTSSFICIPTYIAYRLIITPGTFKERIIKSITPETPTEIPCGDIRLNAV", "settings": "approved dose (100mg) for fibromyalgia; ref Nogami et al., 2013; cited from earlier work"}}}
{"smiles": "CNCC[C@@H](Oc1ccccc1C)c1ccccc1", "note": "[atomoxetine]", "values": [{"measurement": "functional selectivity for NE", "setting": "[1]", "result": "≥ 20", "unit": "fold"}]}
{"smiles": "CCN(CC)C(=O)C1(c2ccccc2)CC1CN", "note": "(centres unmarked) [milnacipran]", "values": [{"measurement": "occupancy of SERT", "setting": "[2]", "result": "~ 40%"}]}
